Where no end group is shown, it is not given here. The star is where a group is joined. Biotin = O=C1N[C@H]2[C@H](CS[C@H]2CCCCC(=O)*)N1
What was measured:
endogenous PBRM1 = experiment: Peptide pull-down, endogenous PBRM1 from cell lysates; format: binding; conditions: H1299 lysate, Supplementary Fig. 2e, f
Procedure: Fig. 2 Acetylation on K382 of p53 promotes PBRM1 binding. a Schematic depiction of the functional domains of p53 and truncated constructs. FL full-length, TAD transactivation domain, PRD proline-rich domain, DBD DNA-binding domain, TD tetramerization domain, CTD C-terminal domain. b HEK293T cells were transfected with vectors, Flag-PBRM1, Myc-p53 and Myc-p53 truncated constructs. After immunoprecipitation with Flag-M2 beads, the inputs and eluates were analyzed by immunoblots. c Vectors, Flag-PBRM1, Myc-p53 and HA-Tip60, HA-PCAF, HA-CBP or HA-p300 were transfected into HEK293T cells as indicated. Lysates were used for anti-Flag immunoprecipitation and 3X Flag peptide elution. The inputs and eluates were analyzed by immunoblots. d HEK293T cells were transfected with Flag-PBRM1, Myc-p53 and HA-p300. The amount of HA-p300 was titrated as indicated. Lysates were used in immunoprecipitations with Flag-M2 beads, and inputs and eluates were analyzed by immunoblots. e Vectors, Flag-PBRM1, HA-p300 and Myc-p53 (WT) or Myc-p53 6KR mutant were transfected into HEK293T cells as indicated. Lysates were used for anti-Flag immunoprecipitation and 3X Flag peptide elution. Inputs and eluates were examined by immunoblots. […] The peptides were pulled down with streptavidin beads and the associated proteins were analyzed by immunoblots. […]

PBRM1-p53 interaction = experiment: Co-immunoprecipitation of Flag-PBRM1 and Myc-p53 (anti-Flag M2) in H1299 cells; format: cell-based
From the text: Fig. 1 PBRM1 and p53 display a physical association that is enhanced after DNA damage. a U2OS cells (left) and HEK293T cells (right) were transfected with vector or Flag-PBRM1 and harvested for immunoprecipitation with Flag-M2 beads and elution with 3X Flag peptide. […] Lysates were subjected to immunoprecipitation with Flag-M2 beads. […] Lysates were immunoprecipitated with p53 antibody. The bound PBRM1 and p53 were examined by immunoblots. Source data are provided as a Source Data file.
For anti-Flag immunoprecipitation, cell pellets harvested from one 10 cm culture dish were resuspended in 500 µl hypotonic buffer (10 mM Tris-HCl, pH 8.0, 1.5 mM MgCl2, 10 mM KCl) with protease and phosphatase inhibitors, 2 μM TSA and 10 mM NAM, and samples were incubated on ice for 15 min. Twenty-five microliters of Triton X-100 was added and samples were vortexed for 10 s. After centrifuging for 30 s at 14,000 × g, supernatants were removed and pellets were resuspended in 100 µl hypertonic buffer (20 mM Tris-HCl pH 8.0, 420 mM KCl, 1.5 mM MgCl2, 20% (v/v) glycerol) with protease and phosphatase inhibitors, 2 μM TSA and 10 mM NAM and vortexed for 10 s. Pellets were incubated on ice for 40 min and vortexed for 15 s every 10 min. After centrifuging for 10 min at 14,000 × g, supernatants were collected and diluted with 300 µl EBC buffer (50 mM Tris-HCl (pH 7.5), 120 mM NaCl, 0.5% NP-40) with protease and phosphatase inhibitors, 2 μM TSA and 10 mM NAM. […] Beads were washed four times with EBC buffer and eluted with 3X Flag peptide (F4799, Sigma-Aldrich) overnight at 4 °C. The input and Flag-elution were analyzed by SDS-PAGE and immunoblot.
Supplementary Figure 2. […]
a. Vectors, Flag-PBRM1 or Myc-p53 were transfected into H1299 cells as indicated, and treated with 5 µM nicotinamide or vehicle. Lysates were used for anti-Flag immunoprecipitation and 3X Flag peptide elution. The inputs and eluates were immunoblotted with the indicated antibodies. […]
Flag-PBRM1, wildtype or K382Q mutated Myc-p53 were transfected into H1299 cells with indicated combinations. Lysates were used for anti-Flagimmunoprecipitation followed by Flag peptide elution. […]

[1] = tested on: ACHN, Caki-1 and Ren-01 cells; experiment: Immunoblot of p53 targets, kidney cancer cells with PBRM1 shRNA knockdown; format: cell-based; conditions: 10 μM Nutlin-3a
Procedure: Lysates were analyzed by immunoblots. c RCC4 cells with or without p53 KO were transfected with vector or Flag-PBRM1 at the indicated amounts. […] Cells were harvested for RT-qPCR (g) or ChIP followed by qPCR (h). […] Representative data is shown in i. Quantification of cell cycle phase is shown in j. Source data are provided as a Source Data file.
After washing with ice-cold PBS, cells were scraped on ice and centrifuged at 10,000 × g for 1 min at 4 °C. For immunoblot analysis, cell pellets were lysed in 1% SDS containing a protease inhibitor cocktail followed by sonication with a FB50 sonic dismembrator (Fisher Scientific) at 20% amplitude for 15 s twice. After centrifuging for 10 min at 14,000 × g, the supernatants were combined with 5X SDS loading buffer (5% mercaptoethanol, 0.05% Bromophenol blue, 30% glycerol, 10% SDS, 250 mM Tris-HCl (pH 6.8)), boiled for 5 min and used in SDS-PAGE. After standard western blot procedures, the blots were developed using the ImageQuant LAS 4000 (GE healthcare Life Sciences) or ChemiDoc MP Imaging System (Bio-rad) with HyGLO™ Chemiluminescent HRP Detection Reagent (E2500, Denville Scientific) or Immobilon™ Western Chemiluminescent HRP Substrate (WBKLS0500, Millipore). […]
the indicated times. Lysates were analyzed via immunoblots. b. […]
were analyzed by immunoblots. c. […]
Lysates were analyzed via immunoblots. e. […]
Lysates were analyzed via immunoblots. f, g, h. […]

BDs of PBRM1 = conditions: shorter peptide, residues 375–388, 14 residues; cited from earlier work
From the text: Although acetylation is indispensable for p53′s transcriptional function and SWI/SNF complexes function as transcriptional co-factors, no acetylation-dependent interaction has been reported between p53 and SWI/SNF complexes. In this study, we report that acetylation on p53 lysine 382 enhanced the interaction between PBRM1 and p53 via recognition by PBRM1 BD4. […] The difference is likely due to the length of the peptides used. In our experiments, the p53 peptide used was much longer than theirs (368–393, 26 re ...

K382Q: Biot-K382Q (368-393) p53 peptide (Biotin-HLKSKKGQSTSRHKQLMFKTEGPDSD; UniProt P04637 368-393, looked up, variant K382Q)
binding to PBRM1 of K382Q peptide (endogenous PBRM1): failed to mimic K382Ac to enhance binding to PBRM1

bleomycin
PBRM1 and exogenous p53 protein levels (PBRM1-p53 interaction; H1299, etoposide 50 μM or bleomycin 10 μg/ml): neither the PBRM1 nor the exogenous p53 levels changed
PBRM1-p53 interaction (PBRM1-p53 interaction; H1299 co-transfected with PBRM1 and p53, bleomycin 10 μg/ml): enhanced

COc1ccc(C2=N[C@@H](c3ccc(Cl)cc3)[C@@H](c3ccc(Cl)cc3)N2C(=O)N2CCNC(=O)C2)c(OC(C)C)c1 [Nutlin-3a]
p21 induction by p53 with PBRM1 knockdown [1]: reduced

NC(=O)c1cccnc1 [Nicotinamide]
PBRM1-p53 interaction (PBRM1-p53 interaction; H1299, 5 µM nicotinamide): enhanced

p53 K382Ac peptide (375–388): p53 K382Ac peptide of previous report, 375–388, 14 residues (QSTSRHKK(Ac)LMFKTE; not fully specified; UniProt P04637 375-388, looked up, fragment)
binding of PBRM1 BDs to p53 K382Ac peptide (BDs of PBRM1): did not bind

Reference: publication PMC6925188, “PBRM1 acts as a p53 lysine-acetylation reader to suppress renal tumor growth” (Nature Communications, 2019)
